The subject of data set [1] is protein kinase C (PKC). The data set is classed as binding, human. The method, then: (§1) The protein kinase C (PKC) affinity of EBC-46 and EBC-46 analogs was performed via competition with ^3H-phorbol-12,13-dibutyrate (^3H-PDBu). This procedure entailed a glass-fiber filtration method to determine bound radioligand.
(§2) Preparation of PKC binding assay buffer: To a 50 mL polypropylene tube was added Tris-HCl (pH 7.4, 1 M, 1 mL), KCl (1 M, 2 mL), CaCl2 (0.1 M, 30 μL), and bovine serum albumin (BSA, 40 mg, Sigma-Aldrich). This mixture was diluted to 20 mL with deionized H2O and mixed gently. The buffer was stored on ice until use.
(§3) Preparation of phosphatidylserine (PS) vesicles: For every two assays, 3.5 mg phosphatidylserine (Avanti Polar Lipids, porcine, 25 mg/mL CHCl3 solution) was concentrated by removing chloroform under a stream of nitrogen followed by reduced pressure. […]
(§4) For each data point, 280 μL of “Master Mix” Solution and 20 μL of analog compound at a specified concentration were added to a polypropylene tube. […] Maximal ^3H-PDBu binding was assessed in triplicate by substitution of the analog compound with 20 μL DMSO. […] Scintillation vials were filled with Bio-Safe II scintillation fluid (5 mL) and measured for radioactivity using a Beckman LS 6000SC scintillation counter. […] The Kd of ^3H-PDBu for PKC isoforms was measured separately via saturation binding experiments under identical conditions.

Data set [2] deals with PKC δ (Homo sapiens, UniProt Q05655). As to the kind of experiment: PKC binding of trigowiin A. The conditions noted are these: type of constant not given; read-out: binds with PKC δ.
Chain of PKC δ (Q05655 whole entry): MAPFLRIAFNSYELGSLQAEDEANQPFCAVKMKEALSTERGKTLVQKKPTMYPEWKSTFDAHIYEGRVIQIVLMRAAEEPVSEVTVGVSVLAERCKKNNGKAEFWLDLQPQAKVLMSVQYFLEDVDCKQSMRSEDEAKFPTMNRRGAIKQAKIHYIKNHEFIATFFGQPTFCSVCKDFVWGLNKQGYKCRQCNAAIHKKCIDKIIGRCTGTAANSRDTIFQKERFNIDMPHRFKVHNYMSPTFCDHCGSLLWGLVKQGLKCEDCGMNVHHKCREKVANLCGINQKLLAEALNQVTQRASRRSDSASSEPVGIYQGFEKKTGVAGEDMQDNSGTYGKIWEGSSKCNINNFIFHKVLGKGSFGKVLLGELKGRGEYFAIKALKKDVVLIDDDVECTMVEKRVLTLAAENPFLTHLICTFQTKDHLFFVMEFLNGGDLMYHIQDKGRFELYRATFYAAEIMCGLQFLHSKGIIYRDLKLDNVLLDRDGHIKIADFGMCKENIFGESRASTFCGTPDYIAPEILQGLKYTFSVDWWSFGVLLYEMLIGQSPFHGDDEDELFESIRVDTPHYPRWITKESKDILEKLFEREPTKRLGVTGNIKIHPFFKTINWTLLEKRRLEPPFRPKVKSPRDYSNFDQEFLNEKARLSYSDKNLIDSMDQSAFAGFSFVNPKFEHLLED
For data set [3], the target named is PKC β (Homo sapiens, UniProt P05771). Briefly: PKC binding of trigowiin A. As to conditions: type of constant not given; read-out: binds with PKC β.
Chain of PKC β (P05771 whole entry, species assumed): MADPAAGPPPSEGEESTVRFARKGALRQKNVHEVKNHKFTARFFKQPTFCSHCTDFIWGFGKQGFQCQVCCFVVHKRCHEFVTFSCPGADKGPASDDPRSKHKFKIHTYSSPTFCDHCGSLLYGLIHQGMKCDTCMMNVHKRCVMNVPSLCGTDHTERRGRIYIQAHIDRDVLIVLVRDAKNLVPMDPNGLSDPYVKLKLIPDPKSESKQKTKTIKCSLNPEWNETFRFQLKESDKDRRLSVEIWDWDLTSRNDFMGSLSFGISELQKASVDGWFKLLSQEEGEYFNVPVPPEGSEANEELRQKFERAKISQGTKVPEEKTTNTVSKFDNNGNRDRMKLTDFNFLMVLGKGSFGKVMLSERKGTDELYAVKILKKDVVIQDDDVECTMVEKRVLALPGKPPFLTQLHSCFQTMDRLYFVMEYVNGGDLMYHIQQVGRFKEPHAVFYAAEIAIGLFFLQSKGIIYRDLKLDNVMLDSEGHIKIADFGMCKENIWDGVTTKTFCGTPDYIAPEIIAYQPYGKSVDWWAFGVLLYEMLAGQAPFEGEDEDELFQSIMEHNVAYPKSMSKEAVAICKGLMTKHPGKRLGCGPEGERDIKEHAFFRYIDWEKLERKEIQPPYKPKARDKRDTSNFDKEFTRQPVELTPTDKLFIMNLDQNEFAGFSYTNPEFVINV
The subject of data set [4] is chikungunya virus (CHKV). The conditions noted are these: cited from earlier work.
The target of data set [5] is T1, PKC-βI (Homo sapiens, UniProt P05771).
T1 construct: purchased Invitrogen
T1 sequence (P05771 whole entry): as the sequence (P05771 whole entry, species assumed) above
The data set is classed as binding. The method, then:
as §1, §2, §3, §4

In data set [6] the test system is PKC-βI-GFP. The data set is classed as cell-based, Chinese hamster. On the procedure:
2 mL of fresh F-12−/− was then added to each well, taking care not to disturb adherent cells. […] 250 μL of the Lipofectamine 2000 suspension was added to the DNA suspension and the solution incubated for 30 minutes at RT. 500 μL of the Lipofectamine/DNA suspension was added to the respective wells of the 6-well plate. The cells were then incubated at 37° C.

Data set [7] has as its system mast cell tumors. The conditions noted are these: canines, cited from earlier work.
Data set [8] is described as follows: Incubation in neutral aqueous media. The data set is classed as physicochemical. As to conditions: upon incubation in neutral aqueous media.

“Also recorded” adds a separate entry of the source.

`CC(=O)O[C@@H]1[C@@H](C)[C@@]2(O)C([C@@H]3C(C)(C)[C@]13OC(C)=O)[C@@H]1O[C@]1(CO)[C@@H](O)[C@]1(O)C(=O)C(C)=C[C@H]12` (stereo partly shown) [SUW401]: the PKC binding affinity result in data set [1] is given as “very low PKC binding affinity”.
Take trigowiin A: in data set [2], the PKC δ binding value (constant type not stated) is 20.3 nM. Besides, the PKC β binding affinity in data set [3] came to 19.3 nM. In data set [4], the “antiviral activity against chikungunya virus” value is given as “moderate antiviral activity”.
As for `C/C=C(\C)C(=O)O[C@@H]1[C@@H](C)[C@@]2(O)C([C@@H]3C(C)(C)[C@]13OC(=O)[C@@H](C)CC)[C@@H]1O[C@]1(CO)[C@@H](O)[C@]1(O)C(=O)C(C)=C[C@H]12` (stereo partly shown) [EBC-46, tigilanol tiglate], the “PKC isoform binding selectivity” value in data set [5] is on record as “isoform-selective binding”. Further, the “translocation of PKC-βI-GFP” value in data set [6] is “modest translocation; also recorded: robust translocation”. In data set [1], the PKC binding affinity result is recorded as “potent PKC affinity”. The remission in data set [7] (after a second dose) was 88%. Further, in data set [7] (after a single intratumoral injection), the complete response is reported as 75%. Also, in data set [8], the “stability in neutral aqueous media” value was “spontaneously undergo Payne rearrangement to EBC-211”.
